Laboratory results: patent publication US20220152523A1, “Cannabinoid Separation by Countercurrent Chromatography” (priority 2019, published 2022)
Read-outs that look alike come from different tables or passages of the source.

[1] = solvent system SS 1: sec-BuOH-1% TFA/water (1:1)
[2] = solvent system SS 3: Hexane-acetone-acetonitrile (5:2:3)
[3] = solvent system SS 4: EtOAc-n-BuOH-water (2:1:3)
[4] = solvent system SS 5: EtOAc-n-BuOH-1% aq. TFA (2:1:3)
[5] = solvent system SS 6: Hexane-EtOAc-MeOH-water (6:1:6:1)
[6] = solvent system Sec-BuOH-water (1:1)

Compound	K, partition coefficient (ratio of upper phase to lower phase) [1]	K, partition coefficient (ratio of upper phase to lower phase) (solvent system SS 2: n-BuOH-1% aq. TFA (1:1))	K, partition coefficient (ratio of upper phase to lower phase) [2]	K, partition coefficient (ratio of upper phase to lower phase) [3]	K, partition coefficient (ratio of upper phase to lower phase) [4]	K, partition coefficient (ratio of upper phase to lower phase) [5]	K, partition coefficient (ratio of upper phase to lower phase) [6]	K, partition coefficient (ratio of upper phase to lower phase) (solvent system n-BuOH-water (1:1))
C=C(C)[C@@H]1CCC(C)=C[C@H]1c1c(O)cc(CCCCC)cc1O [CBD, cannabidiol]	2.7	8.6	0.99	4.2	16.5	0.5	5.5	–
CCCCCc1cc(O)c2c(c1)OC(C)(C)[C@@H]1CCC(C)=C[C@@H]21 [THC, Δ9-Tetrahydrocannabinol]	6.14	–	0.56	6.55	10.9	2.4	9.4	33
